Source: patent publication US11459586B2, “Methods for increasing efficiency of nuclease-mediated gene editing in stem cells” (President and Fellows of Harvard College, priority 2016, dated 2022)

Tested on: human iPSC
Test: simultaneous multiplex mThy1 and mCD147 gene replacement in hiPSC
Format: cell-based
Excerpt: FIGS. 5A-B. Bcl-2 overexpression enables double homozygous targeted gene replacement in human iPSC. FIG. 5A. Mouse Thy1 gene targeting scheme (left). Mouse CD147 gene targeting scheme (right): Two sgRNAs target human BSG (CD147) within intron 1 (Left) or after the polyadenylation site (Right). The mouse CD147 targeting vector plasmid contains mCD147 coding exons 2-7, flanked by hCD147 homology arms outside the sgRNA sites—coding exon 1 (which encodes the signal peptide) is retained but the sgRNA sites are disrupted. FIG. 5B. Plain human iPSC were transfected with 1 μg each of the mThy1 and mCD147 targeting vectors together with a total of 2 μg “Cas9 only sgRNA” or “Cas9 Bcl-2 sgRNA” expression plasmid. Cells were transfected with the following sgRNA combinations: Thy1 Left and CD147 Left, Thy1 Right and CD147 Right, all four Thy1 and CD147 sgRNAs, or Negative sgRNA #1. Nine days later, cells were analyzed by flow cytometry for mThy1, hThy1, mCD147, and hCD147 expression. Upper two plots show the percent of Thy1 or CD147 gene replacement as gated on all live single iPSC. Lower four plots show the percent of CD147 gene replacement as gated on the Thy1 gene targeting quadrants. Results are representative of four independent experiments.
The U6 promoter-sgRNA (for each sgRNA sequence) was cloned into the EF1α promoter-Cas9 nuclease or EF1α promoter-Cas9 nuclease-IRES-Bcl-2 expression plasmids to form the “Cas9 only sgRNA” or “Cas9 Bcl-2 sgRNA” plasmids used in Examples 6 and 7.
Previously, low gene targeting frequencies in hiPSC could be overcome by clever enrichment or selection schemes. However, for simultaneous multiplex gene targeting, a higher absolute frequency is needed. […] Plain hiPSC were transfected with both mThy1 and mCD147 targeting vectors together with the “Cas9 only sgRNA” or “Cas9 Bcl-2 sgRNA” plasmids. Combinations of both Left sgRNAs, both Right sgRNAs, all four sgRNAs, or a negative control sgRNA were used. Cultures were then analyzed by flow cytometry for hThy1, mThy1, hCD147, and mCD147 expression. […] When cell populations were gated on homozygous mThy1 gene replacement (red) and then analyzed for mCD147 gene replacement, we found an enrichment of mCD147 events, rather than an independent assortment of gene editing outcomes. Likewise, when all four sgRNAs were transfected, the mThy1^−hThy1^− double negative population (blue) contained an enriched proportion of mCD147^−hCD147^− cells. Even considering an overall transfection rate of 60-70%, these enrichments indicate that hiPSC may be poised for either HR or NHEJ at various periods. With Bcl-2, the frequency of HR-mediated double homozygous gene replacements (mThy1^+hThy1^− mCD147^+hCD147^−) increased by an order of magnitude (Left sgRNAs: from 0.02% to 0.16%; Right sgRNAs: from 0.01% to 0.37%). […]

Substance: Bcl-2: B cell lymphoma 2 protein, anti-apoptotic, overexpressed from lentivirus or Cas9 plasmid
- frequency of HR-mediated double homozygous gene replacements (mThy1+hThy1- mCD147+hCD147-) (Left sgRNAs, with Bcl-2 (from 0.02% without)): 0.16%
- frequency of HR-mediated double homozygous gene replacements (mThy1+hThy1- mCD147+hCD147-) (Right sgRNAs, with Bcl-2 (from 0.01% without)): 0.37%
- NHEJ-mediated quadruple-negative deletions (mThy1-hThy1- mCD147-hCD147-) (all four sgRNAs, with Bcl-2 (from 0.7% without)): 1.1%
- gene editing frequencies (multiplex mThy1 and mCD147 targeting, every sgRNA combination): improved gene editing frequencies
